{"source": "paper PMC12045974", "about": "“T cell toxicity induced by tigecycline binding to the mitochondrial ribosome” (Nature Communications, 2025)", "key": {"PBMCs": {"tested_on": "PBMCs", "assay": "Extracellular metabolic flux assay (Seahorse Mito Stress Test, OCR and ECAR)", "type": "cell-based, human", "conditions": "for glycolysis rates: vs untreated stimulated controls; for ATP coupled OCR / Basal OCR / Maximal OCR / Spare capacity OCR: PBMC, per donor", "experimental": "The Seahorse XFe96 Analyzer (Seahorse Bioscience) was used to measure oxygen consumption rate (OCR) and extracellular acidification rate (ECAR) in human PBMCs. 1.5 × 10^6 cells/well were seeded in 24-well plates and stimulated using plate-bound anti-CD3 antibody (2 μg/ml, clone OKT3, BD Biosciences), soluble anti-CD28 antibody (0.5 μg/ml, clone CD28.2, Biolegend) and IL-2 (10 ng/ml, Proteintech) in RPMI-1640 (with 10% FBS, 2.05 mM L-glutamine (Sigma), and 55 μM 2-ME (Gibco)). Cells were treated with or without 5 and 10 µM Tigecycline for 6 days with a half medium change after 3 days. After treatment, cells were washed with Seahorse XF RPMI assay medium, and then 200,000 cells per well were seeded (in triplicate) in 40 μl assay medium in XF 96-well cell culture microplate coated with poly-D-lysine (Sigma). The plate was centrifuged at 300 g for 5 s with no brake, rotated 180 °, and centrifuged again for 5 s at 300 x g. After centrifugation, 140 μl of assay medium was added per well and the plate was left to stabilize in a 37 °C, non-CO2 incubator for 40 min. During seahorse, wells were sequentially injected with compounds to achieve final concentrations of […] oligomycin (Sigma); 2 μM FCCP (Sigma); 0.5 μM rotenone (Sigma) together with 0.5 μM antimycin A (Sigma). OCR was measured for each well three times, every three min, before and after each injection. OCR was normalized to protein concentration using a BCA Protein Assay kit (ThermoFisher Scientific) conducted according to the manufacturer’s instructions."}, "[1]": {"tested_on": "CD4+ T cell subsets (Tn, Tcm, Tem)", "assay": "Proliferation of FACS-isolated naive, central memory and effector memory CD4+ T cells", "type": "cell-based, human", "experimental": "Thawed PBMCs were washed with RPMI complemented with 10% FBS, 2.05 mM L-glutamine (Sigma), and 55 μM 2-ME (Gibco) before resting at 37 °C (5% CO2) for 30 min. After counting, cells were resuspended in FACS buffer at a density of 5 × 10^7 cells/ml. CD4^+ T cells were isolated using CD4^+ T cell negative isolation kits (Miltenyi Biotech) and enriched using CD4^+ T cell Enrichment kits (Miltenyi Biotech). Purified CD4^+ T cells were counted and stained with CTV dye and live/dead dye. Subsequently, surface makers were stained at 4 °C in FACS buffer (DPBS + 2% FBS). The following panels were used to classify human T CD4^+ cells from the live lymphocyte gate: naïve CD4^+ T cells: Aqua^-CD4^+CD45RA^+CD27^+; central memory CD4^+ T cells: Aqua^-CD4^+CD45RA^-CD27^+, effector memory CD4^+ T cells: Aqua^-CD4^+CD45RA^-CD27^-. After staining, cells were washed, resuspended and sorted using a FACSAria Fusion (BD Biosciences). Sorted cells were collected into PBS complemented with 2% FBS at 4 °C. Cells were then harvested via centrifugation and resuspended in RPMI-1640 ( + 10% FBS, 2.05 mM L-glutamine (Sigma), and 55 μM 2-ME (Gibco) before counting. Sorted CD4^+ subsets were counted and 85,000 cells per well seeded onto 96-well U-bottom plates with/without Human T-Activator CD3/CD28 beads (Invitrogen) at a 1:2.8 cell:bead ratio and 10 ng/ml IL-2 (Proteintech) in RPMI-1640 ( + 10% FBS, 2.05 mM L-glutamine (Sigma), and 55 μM 2-ME (Gibco). At the same time, tigecycline in serial concentrations (from 2.5 to 10 μM) was added. A half medium change took place after 3 days, and cells were harvested after 6 days for flow cytometry. Antibodies used in the study are presented in Supplementary Table 2."}}, "note": "Where “and” joins values, the source holds several entries; their conditions need not be identical. Equal entries are not always repeated."}
{"smiles": "CN(C)c1cc(NC(=O)CNC(C)(C)C)c(O)c2c1C[C@H]1C[C@H]3[C@H](N(C)C)C(O)=C(C(N)=O)C(=O)[C@@]3(O)C(O)=C1C2=O", "note": "[Tigecycline, tigecycline]", "values": [{"measurement": "glycolysis rates", "setting": "PBMCs; 5 uM treatment", "result": "trended towards an increase"}, {"measurement": "glycolysis rates", "setting": "PBMCs; 10 uM treatment", "result": "trended towards being decreased"}, {"measurement": "ATP coupled OCR", "setting": "PBMCs; 5um", "result": "0.02281 pmol/min/Norm. ug protein and -0.09216 pmol/min/Norm. ug protein and -0.102 pmol/min/Norm. ug protein and -0.498 pmol/min/Norm. ug protein"}, {"measurement": "Basal OCR", "setting": "PBMCs; 5um", "result": "-0.181 pmol/min/Norm. ug protein and -0.2066 pmol/min/Norm. ug protein and 0.2924 pmol/min/Norm. ug protein and 0.06036 pmol/min/Norm. ug protein"}, {"measurement": "Maximal OCR", "setting": "PBMCs; 5um", "result": "0.6209 pmol/min/Norm. ug protein and 0.08625 pmol/min/Norm. ug protein and 0.8496 pmol/min/Norm. ug protein and -0.7482 pmol/min/Norm. ug protein"}, {"measurement": "Spare capacity OCR", "setting": "PBMCs; 5um", "result": "0.2929 pmol/min/Norm. ug protein and 0.5571 pmol/min/Norm. ug protein and -0.8086 pmol/min/Norm. ug protein"}, {"measurement": "ATP coupled OCR", "setting": "PBMCs; 10um", "result": "-0.2018 pmol/min/Norm. ug protein and -0.1474 pmol/min/Norm. ug protein and -0.3438 pmol/min/Norm. ug protein and 0.00593 pmol/min/Norm. ug protein"}, {"measurement": "Basal OCR", "setting": "PBMCs; 10um", "result": "-0.1538 pmol/min/Norm. ug protein and -0.01961 pmol/min/Norm. ug protein and -0.5181 pmol/min/Norm. ug protein and 0.03583 pmol/min/Norm. ug protein"}, {"measurement": "Maximal OCR", "setting": "PBMCs; 10um", "result": "0.1774 pmol/min/Norm. ug protein and 0.3784 pmol/min/Norm. ug protein and -0.2836 pmol/min/Norm. ug protein and 0.05421 pmol/min/Norm. ug protein"}, {"measurement": "Spare capacity OCR", "setting": "PBMCs; 10um", "result": "0.398 pmol/min/Norm. ug protein and 0.2345 pmol/min/Norm. ug protein and 0.01838 pmol/min/Norm. ug protein"}, {"measurement": "glycolysis (ECAR)", "setting": "PBMCs; stimulated PBMCs, 5 and 10 μM, 6 days", "result": "did not observe a major compensatory increase in glycolysis"}, {"measurement": "basal, ATP-coupled, maximal and spare oxygen consumption rates", "setting": "PBMCs; stimulated PBMCs, 5 and 10 μM, 6 days after stimulation", "result": "reduced"}, {"measurement": "proliferation of naive, central memory and effector memory CD4+ T cells", "setting": "[1]; 10 μM, 6 days", "result": "significantly inhibited the proliferation of all subsets"}, {"measurement": "% Cells in each division", "setting": "[1]; Naïve, 2.5μM, division number 0", "result": "4.49% and 2.85% and 0.99%"}, {"measurement": "% Cells in each division", "setting": "[1]; Naïve, 2.5μM, division number 2", "result": "44.1% and 38.6% and 39.3%"}, {"measurement": "% Cells in each division", "setting": "[1]; Naïve, 2.5μM, division number 5", "result": "0.076% and 0.28% and 0.23%"}, {"measurement": "% Cells in each division", "setting": "[1]; Naïve, 2.5μM, division number 6", "result": "0.17% and 0.1% and 0.16%"}, {"measurement": "% Cells in each division", "setting": "[1]; Naïve, 2.5μM, division number 7", "result": "0.25% and 0.12%"}, {"measurement": "% Cells in each division", "setting": "[1]; Naïve, 5μM, division number 0", "result": "3.52% and 9.14% and 5.5%"}, {"measurement": "% Cells in each division", "setting": "[1]; Naïve, 5μM, division number 1", "result": "30.8% and 43.7% and 27.9%"}, {"measurement": "% Cells in each division", "setting": "[1]; Naïve, 5μM, division number 2", "result": 51, "unit": "%"}, {"measurement": "% Cells in each division", "setting": "[1]; Naïve, 5μM, division number 5", "result": "0.058% and 0.021% and 0.055%"}, {"measurement": "% Cells in each division", "setting": "[1]; Naïve, 5μM, division number 6", "result": "0.28% and 0.21% and 0.25%"}, {"measurement": "% Cells in each division", "setting": "[1]; Naïve, 5μM, division number 7", "result": "0.45% and 0.34% and 0.31%"}, {"measurement": "% Cells in each division", "setting": "[1]; Naïve, 10μM, division number 0", "result": "20.7% and 12.2% and 12.7%"}, {"measurement": "% Cells in each division", "setting": "[1]; Naïve, 10μM, division number 1", "result": "58.7% and 45.6% and 58.3%"}, {"measurement": "% Cells in each division", "setting": "[1]; Naïve, 10μM, division number 2", "result": "19.7% and 37.8% and 26.9%"}, {"measurement": "% Cells in each division", "setting": "[1]; Naïve, 10μM, division number 5", "result": "0% and 0.056% and 0.037%"}, {"measurement": "% Cells in each division", "setting": "[1]; Naïve, 10μM, division number 6", "result": "0.22% and 0.27% and 0.31%"}, {"measurement": "% Cells in each division", "setting": "[1]; Naïve, 10μM, division number 7", "result": "0.47% and 0.48% and 0.72%"}, {"measurement": "% Cells in each division", "setting": "[1]; TCM, 2.5μM, division number 0", "result": "11.5% and 6.18% and 6.94%"}, {"measurement": "% Cells in each division", "setting": "[1]; TCM, 2.5μM, division number 1", "result": "38% and 27.5% and 31.5%"}, {"measurement": "% Cells in each division", "setting": "[1]; TCM, 2.5μM, division number 2", "result": "33.5% and 37.9% and 38.1%"}, {"measurement": "% Cells in each division", "setting": "[1]; TCM, 2.5μM, division number 5", "result": "0.31% and 0.62% and 0.44%"}, {"measurement": "% Cells in each division", "setting": "[1]; TCM, 2.5μM, division number 6", "result": "0.5% and 0.64% and 0.43%"}, {"measurement": "% Cells in each division", "setting": "[1]; TCM, 2.5μM, division number 7", "result": "0.62% and 0.7%"}, {"measurement": "% Cells in each division", "setting": "[1]; TCM, 5μM, division number 0", "result": "31.4% and 19.3% and 18.6%"}, {"measurement": "% Cells in each division", "setting": "[1]; TCM, 5μM, division number 1", "result": "46.4% and 46.1% and 47.3%"}, {"measurement": "% Cells in each division", "setting": "[1]; TCM, 5μM, division number 2", "result": "17% and 26.2% and 27.6%"}, {"measurement": "% Cells in each division", "setting": "[1]; TCM, 5μM, division number 5", "result": "0.095% and 0.16% and 0.1%"}, {"measurement": "% Cells in each division", "setting": "[1]; TCM, 5μM, division number 6", "result": "0.58% and 0.85% and 0.47%"}, {"measurement": "% Cells in each division", "setting": "[1]; TCM, 5μM, division number 7", "result": "1.11% and 1.15% and 0.74%"}, {"measurement": "% Cells in each division", "setting": "[1]; TCM, 10μM, division number 0", "result": "51.5% and 35.3% and 35.1%"}, {"measurement": "% Cells in each division", "setting": "[1]; TCM, 10μM, division number 1", "result": "39.1% and 48.8% and 52.5%"}, {"measurement": "% Cells in each division", "setting": "[1]; TCM, 10μM, division number 2", "result": "6.84% and 12.8% and 10.7%"}, {"measurement": "% Cells in each division", "setting": "[1]; TCM, 10μM, division number 5", "result": "0.11% and 0.14% and 0.05%"}, {"measurement": "% Cells in each division", "setting": "[1]; TCM, 10μM, division number 6", "result": "0.69% and 0.83% and 0.56%"}, {"measurement": "% Cells in each division", "setting": "[1]; TCM, 10μM, division number 7", "result": "1.26% and 0.83%"}]}
